# Patent publication US12398140B2, “Substituted pyrrolo [2,3-d]pyrimidines for treating familial dysautonomia” (PTC THERAPEUTICS, INC., priority 2019, dated 2025)
# System: Elongator complex protein 1 (ELPI, also referred to as IKBKAP)
# Assay: IKBKAP-HTRF assay (IKBKAP protein in lysates of FD patient-derived fibroblasts)
# Format: cell-based, human
# Details: FD patient-derived fibroblasts GM04589, 48 hours, 7-point concentration curve
# Experimental: The assay is used for the quantitative determination of Elongator complex protein 1 (ELPI, also referred to as IKBKAP) concentration in cell lysates using the HTRF® (Homogeneous Time-Resolved Fluorescence) technology. IKBKAP is detected in a sandwich HTRF assay by use of an anti-IKAP antibody labeled with a donor and an anti-IKAP antibody labeled with an acceptor.
# Cells were thawed and incubated in DMEM-10% FBS for 72 hours. Cells were trypsinized, counted, and re-suspended to a concentration of 50,000 cells/ml in DMEM-10% FBS. A 199 μL aliquot of the cell suspensions were plated at 10,000 cells per well in a 96 well microtiter plate and incubated for 3 to 5 hours. […] Test compounds were serially diluted 3.16-fold in 100% DMSO to generate a 7-point concentration curve. A 1 μL aliquot of 200× compound solution was transferred to cell-containing wells, and cells were incubated for 48 hours in a cell culture incubator (37° C., 5% CO2, 100% relative humidity). Triplicate samples were set up for each compound concentration. After 48 hours, the supernatant was removed from the cells and 50 μL of the 1×LB4 lysis buffer, containing protease inhibitors, was added to the cells and incubated with shaking at room temperature for 1 hour. A 36 μL aliquot of this lysate was subsequently transferred to the 384-well plate containing 4 μL of the antibody solution (1:50 dilution of anti IKAP d2 and anti-IKAP K(9+8) in detection buffer). The 384-well plate was then centrifuged for 1 minute to bring the solutions to the bottom of the plate and incubated overnight at 4° C. Fluorescence for each well of the plate at 665 nm and 620 nm was measured was on the EnVision plate reader (Perkin Elmer). The ΔF for each sample is calculated by:
# [formula] wherein Signal is the normalized fluorescence for each sample well and Blank is the average normalized average fluorescence for the Blank control wells.
# The maximum fold increase (MFI) in IKBKAP protein abundance for compounds of Formula (I) or a form thereof relative to the vehicle control are provided in Table 1. MFI was calculated by dividing the ΔF value for each sample well by the sample ΔF for the vehicle control wells.
# The EC2x for IKBKAP protein expression obtained from the 7-point concentration curve generated for each test compound according to the protocol in Biological Example 1 are also provided in Table 1. The term “EC2x for IKBKAP protein expression” is defined as the concentration of test compound that is effective in producing two times the amount of IKBKAP protein in a FD patient cell compared to the amount produced from the DMSO vehicle control.
SMILES,EC2x for IKBKAP protein expression (concentration producing two times the amount of IKBKAP protein vs DMSO vehicle control),MFI (maximum fold increase in IKBKAP protein abundance relative to the vehicle control)
"C[C@H](N)Cc1[nH]c2nc(Cl)nc(NCc3nccs3)c2c1F.Cl [Cpd 36, 6-[(2S)-2-aminopropyl]-2-chloro-5-fluoro-N-[(1,3-thiazol-2-yl)methyl]-7H-pyrrolo[2,3-d]pyrimidin-4-amine hydrochloride]",**** (between >0.005 μM and ≤0.02 μM is indicated by four stars (****)),***** (>4.9 is indicated by five stars (*****))
"COC[C@H](N)Cc1c(F)c2c(NCc3ccco3)nc(Cl)nc2n1C.Cl [Cpd 37, 6-[(2R)-2-amino-3-methoxypropyl]-2-chloro-5-fluoro-N-[(furan-2-yl)methyl]-7-methyl-7H-pyrrolo[2,3-d]pyrimidin-4-amine hydrochloride]",*** (between >0.02 μM and ≤0.5 μM is indicated by three stars (***)),***** (>4.9 is indicated by five stars (*****))
"C[C@H](N)Cc1c(F)c2c(NCc3nccs3)nc(Cl)nc2n1C.Cl [Cpd 38, 6-[(2S)-2-aminopropyl]-2-chloro-5-fluoro-7-methyl-N-[(1,3-thiazol-2-yl)methyl]-7H-pyrrolo[2,3-d]pyrimidin-4-amine hydrochloride]",*** (between >0.02 μM and ≤0.5 μM is indicated by three stars (***)),***** (>4.9 is indicated by five stars (*****))
"Cl.Cn1c(C[C@@H](N)CO)c(F)c2c(NCc3ccco3)nc(Cl)nc21 [Cpd 39, (2R)-2-amino-3-(2-chloro-5-fluoro-4-{[(furan-2-yl)methyl]amino}-7-methyl-7H-pyrrolo[2,3-d]pyrimidin-6-yl)propan-1-ol hydrochloride]",**** (between >0.005 μM and ≤0.02 μM is indicated by four stars (****)),***** (>4.9 is indicated by five stars (*****))
"C[C@H](N)Cc1[nH]c2nc(Cl)nc(NCc3cccs3)c2c1F.Cl [Cpd 40, 6-[(2S)-2-aminopropyl]-2-chloro-5-fluoro-N-[(thiophen-2-yl)methyl]-7H-pyrrolo[2,3-d]pyrimidin-4-amine hydrochloride]",**** (between >0.005 μM and ≤0.02 μM is indicated by four stars (****)),***** (>4.9 is indicated by five stars (*****))
"C[C@H](N)Cc1c(F)c2c(NCc3ccncc3F)nc(Cl)nc2n1C.Cl.Cl [Cpd 41, 6-[(2S)-2-aminopropyl]-2-chloro-5-fluoro-N-[(3-fluoropyridin-4-yl)methyl]-7-methyl-7H-pyrrolo[2,3-d]pyrimidin-4-amine dihydrochloride]",*** (between >0.02 μM and ≤0.5 μM is indicated by three stars (***)),***** (>4.9 is indicated by five stars (*****))
"CCn1c(C[C@H](C)N)c(F)c2c(NCc3ccco3)nc(Cl)nc21.Cl [Cpd 42, 6-[(2S)-2-aminopropyl]-2-chloro-7-ethyl-5-fluoro-N-[(furan-2-yl)methyl]-7H-pyrrolo[2,3-d]pyrimidin-4-amine hydrochloride]",*** (between >0.02 μM and ≤0.5 μM is indicated by three stars (***)),** (between >1.9 and ≤2.9 is indicated by two stars (**))
"C[C@H](N)Cc1c(F)c2c(NCc3ccncc3)nc(Cl)nc2n1C.Cl.Cl [Cpd 43, 6-[(2S)-2-aminopropyl]-2-chloro-5-fluoro-7-methyl-N-[(pyridin-4-yl)methyl]-7H-pyrrolo[2,3-d]pyrimidin-4-amine dihydrochloride]",*** (between >0.02 μM and ≤0.5 μM is indicated by three stars (***)),***** (>4.9 is indicated by five stars (*****))
"CC[C@H](N)Cc1[nH]c2nc(Cl)nc(NCc3ccco3)c2c1F.Cl [Cpd 44, 6-[(2S)-2-aminobutyl]-2-chloro-5-fluoro-N-[(furan-2-yl)methyl]-7H-pyrrolo[2,3-d]pyrimidin-4-amine hydrochloride]",**** (between >0.005 μM and ≤0.02 μM is indicated by four stars (****)),***** (>4.9 is indicated by five stars (*****))
"CC[C@H](N)Cc1c(F)c2c(NCc3ccco3)nc(Cl)nc2n1C.Cl [Cpd 45, 6-[(2S)-2-aminobutyl]-2-chloro-5-fluoro-N-[(furan-2-yl)methyl]-7-methyl-7H-pyrrolo[2,3-d]pyrimidin-4-amine hydrochloride]",*** (between >0.02 μM and ≤0.5 μM is indicated by three stars (***)),***** (>4.9 is indicated by five stars (*****))
"COc1ccc(-n2c(C[C@H](C)N)c(F)c3c(NCc4ccco4)nc(Cl)nc32)cc1.Cl [Cpd 46, 6-[(2S)-2-aminopropyl]-2-chloro-5-fluoro-N-[(furan-2-yl)methyl]-7-(4-methoxyphenyl)-7H-pyrrolo[2,3-d]pyrimidin-4-amine hydrochloride]",* (An EC2x>1 μM is indicated by one star (*)),* (An MFI≤1.9 is indicated by one star (*))
"COc1ccc(-n2c(C[C@H](C)N)c(F)c3c(NCc4cccs4)nc(Cl)nc32)cc1.Cl [Cpd 47, 6-[(2S)-2-aminopropyl]-2-chloro-5-fluoro-7-(4-methoxyphenyl)-N-[(thiophen-2-yl)methyl]-7H-pyrrolo[2,3-d]pyrimidin-4-amine hydrochloride]",* (An EC2x>1 μM is indicated by one star (*)),* (An MFI≤1.9 is indicated by one star (*))
"C[C@H](N)Cc1c(F)c2c(NCc3cncs3)nc(Cl)nc2n1C.Cl.Cl [Cpd 48, 6-[(2S)-2-aminopropyl]-2-chloro-5-fluoro-7-methyl-N-[(1,3-thiazol-5-yl)methyl]-7H-pyrrolo[2,3-d]pyrimidin-4-amine dihydrochloride]",* (An EC2x>1 μM is indicated by one star (*)),* (An MFI≤1.9 is indicated by one star (*))
"C[C@H](N)Cc1c(F)c2c(NCc3cccs3)nc(Cl)nc2n1C.Cl [Cpd 49, 6-[(2S)-2-aminopropyl]-2-chloro-5-fluoro-7-methyl-N-[(thiophen-2-yl)methyl]-7H-pyrrolo[2,3-d]pyrimidin-4-amine hydrochloride]",**** (between >0.005 μM and ≤0.02 μM is indicated by four stars (****)),***** (>4.9 is indicated by five stars (*****))
"C[C@H](N)Cc1[nH]c2nc(Cl)nc(NCc3ccccc3)c2c1F.Cl [Cpd 50, 6-[(2S)-2-aminopropyl]-N-benzyl-2-chloro-5-fluoro-7H-pyrrolo[2,3-d]pyrimidin-4-amine hydrochloride]",*** (between >0.02 μM and ≤0.5 μM is indicated by three stars (***)),*** (between >2.9 and ≤3.9 is indicated by three stars (***))
"C[C@H](N)Cc1c(F)c2c(NCc3ccccc3)nc(Cl)nc2n1C.Cl [Cpd 51, 6-[(2S)-2-aminopropyl]-N-benzyl-2-chloro-5-fluoro-7-methyl-7H-pyrrolo[2,3-d]pyrimidin-4-amine hydrochloride]",*** (between >0.02 μM and ≤0.5 μM is indicated by three stars (***)),*** (between >2.9 and ≤3.9 is indicated by three stars (***))
"C[C@H](N)Cc1[nH]c2nc(Cl)nc(NCc3ccccc3F)c2c1F.Cl [Cpd 52, 6-[(2S)-2-aminopropyl]-2-chloro-5-fluoro-N-[(2-fluorophenyl)methyl]-7H-pyrrolo[2,3-d]pyrimidin-4-amine hydrochloride]",*** (between >0.02 μM and ≤0.5 μM is indicated by three stars (***)),**** (between >3.9 and ≤4.9 is indicated by four stars (****))
